Marks after values point to notes of the source that are not given here.
Columns and labels:
[1] = tested on: model of sephadex-induced eosinophilic lung inflammation in rats; experiment: Content of cell elements in BAL in the model of sephadex-induced eosinophilic lung inflammation in rats; assay type: in vivo, male Wistar rats; details: BAL 48 hours after sephadex
Method: The model of sephadex-induced eosinophilic lung inflammation in rats was realized by a standard method [Evaldsson C, Rydén I, Uppugunduri S. Isomaltitol exacerbates neutrophilia but reduces eosinophilia: new insights into the sephadex model of lung inflammation//Int Arch Allergy Immunol. 2011; 154(4):286-94]. Sephadex G-200 (Pharmacia, Sweden) was administered one time by inhalation to male Wistar rats at a dose of 5 mg/kg. The studied compounds were administered to the animals by the intragastric route four times: 24 hours and 1 hour before and 24 hours and 45 hours after administration of sephadex. The reference preparation, budesonide, was administered according to the same scheme, by inhalation at a dose of 0.5 mg/kg. Bronchoalveolar lavage was taken 48 hours after the inhalation of sephadex, and the total lymphocyte count and leukocyte formula in the lavage were determined. The number of rats in a group was 7 to 10.

[2] = tested on: model of bronchial asthma in guinea pigs; experiment: Content of cell elements in BAL in the model of bronchial asthma in guinea pigs; assay type: in vivo, guinea pig; details: Table 4; 14 mg/kg, 10 times of administration; n = 9
Method: Bronchial asthma in guinea pigs was induced by a standard method [Ricciardolo F L, Nijkamp F, De Rose V, Folkerts G. The guinea pig as an animal model for asthma// Current Drug Targets. 2008 June; 9(6):452-65]. The animals were immunized by one parenteral administration of 0.5 mL of a solution comprising 100 μg/mL ovalbumin (Sigma) and 100 mg/mL aluminium hydroxide. Intact animals received a physiological saline solution in an amount of 0.5 mL.
On days 29, 30 and 31, hyperactivity of the respiratory airways was provoked by inhalation administration of ovalbumin in ascending concentrations of 0.1, 0.3, and 0.5 mg/mL on days 1, 2, and 3 of the provocation, respectively. The inhalation lasted 5 minutes or until asphyxia symptoms became apparent (fall to one side). On day 32, the animals received a challenging dose of ovalbumin (1 mg/mL) for 5 minutes, while assessing a bronchospastic reaction.
The studied compounds were administered to the animals once daily every day for 6 or 10 days; the administration was terminated two days before the administration of the challenging dose of antigen.
The bronchoalveolar lavage (BAL) and cardiac cavity blood were derived from the animals 24 hours after administration of the challenging dose. The BAL was collected under anesthesia by lavaging the lungs with 5 mL of a physiological saline solution heated to 37° C. through the trachea, using a syringe dosing device.
The absolute number of cell elements in 1 μL of the lavage (cytosis) was counted in the bronchoalveolar lavage, using the Goryaev camera. Then, the BAL was centrifuged at 200 g for 10 minutes. The residue was used to prepare swabs that were fixed in methanol and stained according to Romanovsky-Giemsa to count endopulmonary cytogram.
The study comprised 3 experiments, wherein the first one was directed to the evaluation of the effect of claimed compounds 1-6 on the cell composition of the BAL, the second and the third experiments were aimed at evaluating the effect of compounds 1 and 2 on the cell composition of the BAL, the cell composition of the blood, and on the bronchospasm severity.

[3] = Table 8, 0.5 mg/kg by inhalation, four times (reference preparation), n = 10
[4] = Table 9, 1.8 mg/kg intragastric, four times, n = 7
[5] = Table 9, 18 mg/kg intragastric, four times, n = 7

## CCCC1O[C@@H]2C[C@H]3[C@@H]4CCC5=CC(=O)C=C[C@]5(C)[C@H]4[C@@H](O)C[C@]3(C)[C@]2(C(=O)CO)O1 (stereo partly shown) [Budesonide, budesonide, reference compound]
[1]; [3]
  Eosinophils, content of cell elements in 1 μL of BAL: 204 ± 84*& in 1 μL of BAL
  Leukocytes, content of cell elements in 1 μL of BAL: 1805 ± 318*& in 1 μL of BAL
  Lymphocytes, content of cell elements in 1 μL of BAL: 37 ± 10& in 1 μL of BAL
  Macrophages, content of cell elements in 1 μL of BAL: 1230 ± 205 in 1 μL of BAL
  Neutrophils, content of cell elements in 1 μL of BAL: 334 ± 119 in 1 μL of BAL

## CC1(C)CC(=O)N(CCc2cnc[nH]2)C(=O)C1 [Compound 3]
[2]
  Eosinophils in BAL: 0.93 ± 0.31*& 10^9/L
  Lymphocytes in BAL: 0.72 ± 0.08* 10^9/L
  Monocytes in BAL: 0.71 ± 0.18& 10^9/L
  Neutrophils in BAL: 0.36 ± 0.08 10^9/L

## O=C1CCCC(=O)N1CCc1nc2ccccc2s1 [Compound 4, 1-(2-(1,3-benzothiazol-2-yl)ethyl)piperidine-2,6-dione]
[2]
  Eosinophils in BAL: 1.25 ± 0.34*& 10^9/L
  Lymphocytes in BAL: 0.81 ± 0.11* 10^9/L
  Monocytes in BAL: 0.85 ± 0.19& 10^9/L
  Neutrophils in BAL: 0.43 ± 0.12 10^9/L

## O=C1CCCC(=O)N1CCc1nccs1 [Compound 6]
[2]
  Eosinophils in BAL: 0.60 ± 0.21*& 10^9/L
  Lymphocytes in BAL: 1.03 ± 0.24* 10^9/L
  Monocytes in BAL: 0.83 ± 0.18* 10^9/L
  Neutrophils in BAL: 0.97 ± 0.28* 10^9/L

## Cl.O=C1CCCC(=O)N1CCC1CCCN1 (stereo not shown) [Compound 7]
[1]; [4]
  Eosinophils, content of cell elements in 1 μL of BAL: 28 ± 16& in 1 μL of BAL
  Leukocytes, content of cell elements in 1 μL of BAL: 2242 ± 289& in 1 μL of BAL
  Lymphocytes, content of cell elements in 1 μL of BAL: 16 ± 10 in 1 μL of BAL
  Macrophages, content of cell elements in 1 μL of BAL: 913 ± 235& in 1 μL of BAL
  Neutrophils, content of cell elements in 1 μL of BAL: 389 ± 188 in 1 μL of BAL
[1]; [5]
  Eosinophils, content of cell elements in 1 μL of BAL: 164 ± 62 & in 1 μL of BAL
  Leukocytes, content of cell elements in 1 μL of BAL: 1725 ± 345& in 1 μL of BAL
  Lymphocytes, content of cell elements in 1 μL of BAL: 29 ± 17 in 1 μL of BAL
  Macrophages, content of cell elements in 1 μL of BAL: 909 ± 299& in 1 μL of BAL
  Neutrophils, content of cell elements in 1 μL of BAL: 136 ± 50& in 1 μL of BAL

## CC1CC(=O)N(CCc2cnc[nH]2)C(=O)C1 [Compound 8]
[1]; [4]
  Eosinophils, content of cell elements in 1 μL of BAL: 202 ± 53*& in 1 μL of BAL
  Leukocytes, content of cell elements in 1 μL of BAL: 2796 ± 333 & in 1 μL of BAL
  Lymphocytes, content of cell elements in 1 μL of BAL: 82 ± 44 in 1 μL of BAL
  Macrophages, content of cell elements in 1 μL of BAL: 1860 ± 204& in 1 μL of BAL
  Neutrophils, content of cell elements in 1 μL of BAL: 303 ± 104& in 1 μL of BAL
[1]; [5]
  Eosinophils, content of cell elements in 1 μL of BAL: 318 ± 65*& in 1 μL of BAL
  Leukocytes, content of cell elements in 1 μL of BAL: 4250 ± 576 in 1 μL of BAL
  Lymphocytes, content of cell elements in 1 μL of BAL: 64 ± 45 in 1 μL of BAL
  Macrophages, content of cell elements in 1 μL of BAL: 2050 ± 462& in 1 μL of BAL
  Neutrophils, content of cell elements in 1 μL of BAL: 583 ± 180 in 1 μL of BAL
